# Source: PMC5021161 (Environmental and Molecular Mutagenesis, 2016)
# Where two headings read alike, the source gives them in different places.
# Experiments:
# [1] = test system: ATF3; type: cell-based, human; conditions: 2% Aroclor S9, 4 hr + 3-4 hr recovery
# [2] = test system: CDKN1A; type: cell-based, human
# [3] = test system: GADD45A; type: cell-based, human
# [4] = test system: TK6 cells; conditions: for % Relative Survival: 2% Aroclor S9, 4 hr + 20 hr recovery
# [5] = test system: TK6 cells; conditions: 2% Aroclor S9, 4 hr + 20 hr recovery
# [6] = test system: TK6 cells; conditions: for % MN: 2% Aroclor S9; for statistically significant % MN increase relative to controls: for at least one concentration
# [7] = test system: TGx‐28.65 biomarker genes; conditions: for Dendogram TGx‐28.65 / NSC TGx‐28.65 / PCA TGx‐28.65: 2% Aroclor S9, 4 hr + 3-4 hr recovery
# [8] = test system: TK6 cells; conditions: 1% BF/PB S9, ref Buick et al., 2015, cited from earlier work
# [9] = test system: TGx‐28.65 biomarker genes; conditions: 2015, cited from earlier work; for Dendogram TGx‐28.65 / NSC TGx‐28.65 / PCA TGx‐28.65: 1% BF/PB S9
# [10] = test system: ATF3, CDKN1A, and GADD45A; experiment: RT‐qPCR of the three stress response genes; type: cell-based, human; conditions: 2% Aroclor‐induced S9
# [11] = 2 μg/ml, 2% Aroclor S9, 4 hr + 3-4 hr recovery
# [12] = 1 μg/ml, 2% Aroclor S9, 4 hr + 3-4 hr recovery
# [13] = 20 μg/ml, 2% Aroclor S9, 4 hr + 3-4 hr recovery
# [14] = 280 μg/ml, 2% Aroclor S9, 4 hr + 3-4 hr recovery
# [15] = 1 mM, 2% Aroclor S9, 4 hr + 3-4 hr recovery
# [16] = 5 mM, 2% Aroclor S9, 4 hr + 3-4 hr recovery
# [17] = 10 mM, 2% Aroclor S9, 4 hr + 3-4 hr recovery
smiles,measurement,setting,value
Nc1ccc2cc3ccccc3cc2c1 [2‐Aminoanthracene],ATF3 fold change vs vehicle control (+S9),[1]; 2 μg/ml,2.3 fold change
same,CDKN1A fold change vs vehicle control (+S9),[2]; [11],4.6 fold change
same,GADD45A fold change vs vehicle control (+S9),[3]; [11],1.7 fold change
same,% Relative Survival,[4]; 2 μg/ml,46.78%
same,% Relative Survival,"[4]; 2 μg/ml, listed as 2‐aminoanthracene",47%
same,% Apoptotic cells,[5]; 2 μg/ml,18.48%
same,% MN,"[6]; 2 μg/ml, 4 hr + 20 hr recovery",1.22%
same,fold increase in % MN above vehicle + S9 control,"[6]; high concentration, definitive study, 4 hr + 20 hr recovery",1.8 fold
same,Dendogram TGx‐28.65,[7]; 2 μg/ml,+
same,NSC TGx‐28.65,[7]; 2 μg/ml,+
same,PCA TGx‐28.65,[7]; 2 μg/ml,+
same,"probability of being genotoxic (NSC, TGx‐28.65)",[7]; all concentrations,> 0.9
same,classification using TGx‐28.65,[7]; mid and high concentrations,genotoxic
O=[N+]([O-])c1ccc2c(c1)Cc1ccccc1-2 [2‐Nitrofluorene],% Apoptotic cells,[5]; 10 μM,9.84%
same,% Apoptotic cells,[5]; 50 μM,12.62%
same,% Apoptotic cells,[5]; 300 μM,20.43%
same,% MN,"[6]; 10 μM, 4 hr + 20 hr recovery",1.48%
same,% MN,"[6]; 50 μM, 4 hr + 20 hr recovery",2.23%
same,% MN,"[6]; 300 μM, 4 hr + 20 hr recovery",3.13%
same,Dendogram TGx‐28.65,[7]; 10 μM,−
same,NSC TGx‐28.65,[7]; 10 μM,−
same,PCA TGx‐28.65,[7]; 10 μM,−
same,Dendogram TGx‐28.65,[7]; 50 μM,−
same,NSC TGx‐28.65,[7]; 50 μM,+
same,PCA TGx‐28.65,[7]; 50 μM,+
same,Dendogram TGx‐28.65,[7]; 300 μM,−
same,NSC TGx‐28.65,[7]; 300 μM,+
same,PCA TGx‐28.65,[7]; 300 μM,+
same,classification by hierarchical cluster analysis (TGx‐28.65 genes),[7]; all concentrations,non‐genotoxic
same,classification using TGx‐28.65,[7]; low concentrations,non‐genotoxic
same,classification using TGx‐28.65,[7]; mid and high concentrations,genotoxic
CC(=O)Nc1ccc(O)cc1 [Acetaminophen],concentration range in which toxic effects are observed,[6]; human,3000 to 10000 µM
O=P1(N(CCCl)CCCl)NCCCO1 (centres unmarked) [Cyclophosphamide],fold increase in % MN above vehicle + S9 control,[6]; human,8 fold
C[C@@H]1C[C@H]2[C@@H]3CCC4=CC(=O)C=C[C@]4(C)[C@@]3(F)[C@@H](O)C[C@]2(C)[C@@]1(O)C(=O)CO [Dexamethasone],% Apoptotic cells,[8]; 0.63 mM,5.5%
same,% Apoptotic cells,[8]; 1 mM,12.2%
same,Dendogram TGx‐28.65,"[9]; 0.63 mM, ref Buick et al.",−
same,NSC TGx‐28.65,"[9]; 0.63 mM, ref Buick et al.",−
same,PCA TGx‐28.65,"[9]; 0.63 mM, ref Buick et al.",−
same,Dendogram TGx‐28.65,"[9]; 1 mM, ref Buick et al.",−
same,NSC TGx‐28.65,"[9]; 1 mM, ref Buick et al.",−
same,PCA TGx‐28.65,"[9]; 1 mM, ref Buick et al.",−
"c1ccc2c(c1)ccc1cc3c(ccc4ccccc43)cc12 [Dibenz[a,h]anthracene]",ATF3 fold change vs vehicle control (+S9),[1]; 1 μg/ml,1.1 fold change
same,ATF3 fold change vs vehicle control (+S9),[1]; 20 μg/ml,1.6 fold change
same,ATF3 fold change vs vehicle control (+S9),[1]; 280 μg/ml,2.3 fold change
same,CDKN1A fold change vs vehicle control (+S9),[2]; [12],1.2 fold change
same,CDKN1A fold change vs vehicle control (+S9),[2]; [13],2.4 fold change
same,CDKN1A fold change vs vehicle control (+S9),[2]; [14],4.2 fold change
same,GADD45A fold change vs vehicle control (+S9),[3]; [12],1.2 fold change
same,GADD45A fold change vs vehicle control (+S9),[3]; [13],1.7 fold change
same,GADD45A fold change vs vehicle control (+S9),[3]; [14],2.0 fold change
same,% Relative Survival,[4]; 1 μg/ml,97.79%
same,% Relative Survival,[4]; 20 μg/ml,64.12%
same,% Relative Survival,[4]; 280 μg/ml,53.91%
same,% Apoptotic cells,[5]; 1 μg/ml,9.74%
same,% Apoptotic cells,[5]; 20 μg/ml,16.82%
same,% Apoptotic cells,[5]; 280 μg/ml,31.79%
same,% MN,"[6]; 1 μg/ml, 4 hr + 20 hr recovery",2.16%
same,% MN,"[6]; 20 μg/ml, 4 hr + 20 hr recovery",3.42%
same,% MN,"[6]; 280 μg/ml, 4 hr + 20 hr recovery",3.80%
same,statistically significant % MN increase relative to controls,[6]; definitive study,over twofold
same,Dendogram TGx‐28.65,[7]; 1 μg/ml,+
same,NSC TGx‐28.65,[7]; 1 μg/ml,−
same,PCA TGx‐28.65,[7]; 1 μg/ml,−
same,Dendogram TGx‐28.65,[7]; 20 μg/ml,+
same,NSC TGx‐28.65,[7]; 20 μg/ml,+
same,PCA TGx‐28.65,[7]; 20 μg/ml,+
same,Dendogram TGx‐28.65,[7]; 280 μg/ml,+
same,NSC TGx‐28.65,[7]; 280 μg/ml,+
same,PCA TGx‐28.65,[7]; 280 μg/ml,+
same,classification using TGx‐28.65,[7]; low concentrations,non‐genotoxic
same,classification by hierarchical cluster analysis (TGx‐28.65 genes),[7]; lowest concentration,genotoxic
same,classification using TGx‐28.65,[7]; mid and high concentrations,genotoxic
CN(C)N=O [Dimethylnitrosamine],ATF3 fold change vs vehicle control (+S9),[1]; 1 mM,0.8 fold change
same,ATF3 fold change vs vehicle control (+S9),[1]; 5 mM,0.8 fold change
same,ATF3 fold change vs vehicle control (+S9),[1]; 10 mM,0.8 fold change
same,CDKN1A fold change vs vehicle control (+S9),[2]; [15],1.0 fold change
same,CDKN1A fold change vs vehicle control (+S9),[2]; [16],1.3 fold change
same,CDKN1A fold change vs vehicle control (+S9),[2]; [17],1.2 fold change
same,GADD45A fold change vs vehicle control (+S9),[3]; [15],1.0 fold change
same,GADD45A fold change vs vehicle control (+S9),[3]; [16],1.2 fold change
same,GADD45A fold change vs vehicle control (+S9),[3]; [17],1.5 fold change
same,induction of genes in the stress response panel,[10],did not induce any of the genes
same,change in RS relative to DMSO controls,[4],declines
same,% Relative Survival,[4]; 1 mM,76.40%
same,% Relative Survival,[4]; 5 mM,72.92%
same,% Relative Survival,[4]; 10 mM,45.65%
same,% Apoptotic cells,[5]; 1 mM,8.47%
same,% Apoptotic cells,[5]; 5 mM,12.27%
same,% Apoptotic cells,[5]; 10 mM,30.63%
same,change in % MN relative to DMSO controls,[6],Significant increases
same,% MN,"[6]; 1 mM, 4 hr + 20 hr recovery",1.15%
same,% MN,"[6]; 5 mM, 4 hr + 20 hr recovery",2.29%
same,% MN,"[6]; 10 mM, 4 hr + 20 hr recovery",2.80%
same,statistically significant % MN increase relative to controls,[6]; definitive study,over twofold
same,Dendogram TGx‐28.65,[7]; 1 mM,−
same,NSC TGx‐28.65,[7]; 1 mM,−
same,PCA TGx‐28.65,[7]; 1 mM,−
same,Dendogram TGx‐28.65,[7]; 5 mM,+
same,NSC TGx‐28.65,[7]; 5 mM,+
same,PCA TGx‐28.65,[7]; 5 mM,+
same,Dendogram TGx‐28.65,[7]; 10 mM,+
same,NSC TGx‐28.65,[7]; 10 mM,+
same,PCA TGx‐28.65,[7]; 10 mM,+
same,hierarchical cluster analysis with TGx‐28.65,"[7]; 10% Aroclor‐induced S9, lowest concentration (1 mM)",on the same branch as non‐genotoxic agents
same,classification using TGx‐28.65,[7]; low concentrations,non‐genotoxic
same,classification using TGx‐28.65,[7]; mid and high concentrations,genotoxic
c1ccc2c(c1)ccc1ccccc12 [Phenanthrene],% Relative Survival,[4]; 8 μg/ml,94.13%
same,% Relative Survival,[4]; 40 μg/ml,65.32%
same,% Relative Survival,[4]; 100 μg/ml,38.91%
same,% Relative Survival,"[4]; 100 μg/ml, listed as phenanthrene",~40%
same,% Apoptotic cells,[5]; 8 μg/ml,10.60%
same,% Apoptotic cells,[5]; 40 μg/ml,14.71%
same,% Apoptotic cells,[5]; 100 μg/ml,26.73%
same,increase in % MN,[6],no significant increase
same,Dendogram TGx‐28.65,[7]; 8 μg/ml,−
same,NSC TGx‐28.65,[7]; 8 μg/ml,−
same,PCA TGx‐28.65,[7]; 8 μg/ml,−
same,Dendogram TGx‐28.65,[7]; 40 μg/ml,−
same,NSC TGx‐28.65,[7]; 40 μg/ml,−
same,PCA TGx‐28.65,[7]; 40 μg/ml,−
same,Dendogram TGx‐28.65,[7]; 100 μg/ml,−
same,NSC TGx‐28.65,[7]; 100 μg/ml,−
same,PCA TGx‐28.65,[7]; 100 μg/ml,−
OC[C@H]1O[C@@](CO)(O[C@H]2O[C@H](CO)[C@@H](O)[C@H](O)[C@H]2O)[C@@H](O)[C@@H]1O [Sucrose],CDKN1A fold change vs vehicle control (+S9),[2],0.4 fold change
same,GADD45A fold change vs vehicle control (+S9),[3],0.8 fold change
same,% Relative Survival,[4]; 1 mM,95.04%
same,% Relative Survival,[4]; 10 mM,90.93%
same,% Apoptotic cells,[5]; 1 mM,8.98%
same,% Apoptotic cells,[5]; 10 mM,9.75%
same,% MN,"[6]; 1 mM, 4 hr + 20 hr recovery",0.94%
same,% MN,"[6]; 10 mM, 4 hr + 20 hr recovery",0.97%
same,increase in % MN,"[6]; definitive study, 2% Aroclor‐induced S9",no significant increase
same,Dendogram TGx‐28.65,[7]; 1 mM,−
same,NSC TGx‐28.65,[7]; 1 mM,−
same,PCA TGx‐28.65,[7]; 1 mM,−
same,Dendogram TGx‐28.65,[7]; 10 mM,−
same,NSC TGx‐28.65,[7]; 10 mM,−
same,PCA TGx‐28.65,[7]; 10 mM,−
N.N.[Cl][Pt][Cl] [cisplatin],classification using TGx‐28.65,"[9]; in the presence and absence of S9, ref Buick et al.",accurately classified the genotoxicity
CC(C)OS(C)(=O)=O [isopropyl methanesulfonate],classification using TGx‐28.65,"[9]; TK6 cells, biomarker development study, ref Li et al.",genotoxic
